# Experiments:
# [1] = Chemical stability test of crystal form under storage conditions; type: physicochemical; details: all storage conditions, compared with the sample
# Method: The stability of the crystal form of the present invention was examined under various storage conditions. After storage, the residual ratio (%) of each of the samples stored under the respective conditions with respect to the area percentage of the sample stored at −20° C. was calculated by HPLC. Further, by using a powder X-ray diffraction spectrum, peaks were compared with those of the sample. The appearance was observed by visual inspection and compared with that of the sample.
# <Storage Conditions and Sampling Time>
# 25° C.-60% RH (opened): 3 months
# 40° C.-75% RH (opened): 3 months
# 2500 Lux: 20D (shading, transparent)
# Human KCNQ2/3 = biological target: T1, Human KCNQ2/3 (Homo sapiens, UniProt O43525+O43526); assay: Opening action with respect to KCNQ2/3 channel by depolarization stimulation (thallium influx, FLIPR); type: cell-based; details: human KCNQ2/3 expressing CHO-DHFR- cells; concentration giving 50% of maximum reaction of retigabine (10 μM); 5 mM potassium and 0.5 mM thallium; read-out: opening action (ECrtg50 value) with respect to the KCNQ2/3 channel
# T1 construct: expressed in transfected cells; host or cells: CHO-DHFR- cells
# Method: Human KCNQ2/3 expression cells (CHO-DHFR-cells) were seeded in each well of a 384-well plate (collagen-coated, black, clear bottom) at 0.5×10^4 cells/50 μL per well and cultured in a MEM ALPHA medium (containing 10 vol % inactivated (56° C., 30 min) fetal bovine serum, 100 IU/mL penicillin, 100 μg/mL streptomycin, and 2 mM L-glutamine) at 37° C. in 5% CO2 for 18 to 24 hours. After the medium in the plate was removed, incubation (room temperature, 60 minutes, shading) was performed in a loading buffer (prepared by the method described in the manual of FluxOR Thallium Detection Kit (Invitrogen, F10016, F10017)). A KCNQ2/3 channel opening action (thallium influx into cells) by depolarization stimulation (5 mM potassium and 0.5 mM thallium) was measured by FLIPR TETRA (Molecular Devices). The compound I was treated 5 minutes before the depolarization stimulation, and the reaction induced by the depolarization stimulation was measured over time for 180 seconds. The channel opening action of the compound I was evaluated based on the change amount of the fluorescence intensity from the time before the depolarization stimulation to the time after the elapse of 180 seconds, and the concentration (ECrtg50) satisfying 50% of the fluorescence intensity change of a maximum reaction (in the treatment at 10 μM) of retigabine under the conditions of this experiment was calculated.
# Solubility test = type: physicochemical; details: aqueous buffer, kinetic from dmso stock, Japanese Pharmacopoeia dissolution test second solution (pH 6.8), room temperature, quantification range 5 to 100 μM
# Method: A calibration curve solution was prepared at 0.1, 0.4, and 2 μM by diluting a test substance (a 10 mM DMSO solution) with acetonitrile and adding acetonitrile containing an internal standard substance (candesartan).
# A sample solution was prepared as follows. 5 μL of the compound I (a 10 mM DMSO solution) was added to 495 μL of the Japanese Pharmacopoeia dissolution test second solution (pH: 6.8), followed by stirring at room temperature for 5 hours. Then, the solution was transferred to a solubility filter plate and subjected to suction filtration. The filtrate (20 μL) was diluted with acetonitrile, followed by adding acetonitrile containing an internal standard substance (candesartan).
# Each of the calibration curve and sample solutions (5 μL) was injected into LC-MS/MS (Discovery Max, manufactured by Thermo Scientific, Inc.) and subjected to quantification (quantification range: 5 to 100 μM). The solubility in the case where the value equal to or less than the quantification range was obtained was defined as <5 μM, and the solubility in the case where the value equal to or more than the quantification range was obtained was defined as […].
# [2] = Water vapor adsorption/desorption isotherm measurement; type: physicochemical; details: 25° C., relative humidity of 50% RH or more, based on mass when dried (0% RH)
# Method: (3) Water Vapor Adsorption/Desorption Isotherm Measurement
# Device: DVS Intrinsic, manufactured by SMS Co., Ltd.
# Change in relative humidity: 0% to 95% (5% STEP)
# STEP transition criterion: percent change in weight: 0.002%/min
# A change in mass when the humidity was changed in a stepwise manner (relative humidity: from 0% RH to 95% RH) at 25° C. was recorded over time, and an equilibrium mass at each humidity was determined. Subsequently, based on the mass when dried (0% RH), the percent change in mass at each humidity and the hydration number were determined.
# hERG channel = biological target: T2, hERG channel (Homo sapiens, UniProt Q12809); assay: Evaluation of action on hERG IKr current (patch-clamp); type: cell-based; details: HEK293 cells overexpressing hERG, maximum tail current, 10 minutes after application, read-out: 50% hERG channel inhibitory activity
# T2 construct: expressed in transfected cells; host or cells: HEK293 cells
# Method: By using HEK293 cells overexpressing a human ether-a-go-go-related gene (hERG), the maximum tail current of the hERG IKr current induced by redepolarization pulse subsequent to depolarization pulse was measured by a patch-clamp method. The percent change (suppression rate) after 10 minutes from application of a test substance with respect to the maximum tail current before the application of the test substance was calculated (see, Biophysical Journal, vol. 74, pp. 230-241 (1998)).
# [3] = system: bladder extracted from rat; assay: Relaxing action on bladder extracted from rat (Magnus test, carbachol contraction); details: concentration at which percent change in tension is −20%; carbachol 1 μM contraction; female Wistar rat bladder strip
# Method: Female Jcl:Wistar rats (CLEA Japan, Inc., body weight at use: 170 to 200 g) were anesthetized by intraperitoneal administration of about 40 mg/kg of pentobarbital (Somnopentyl, Schering Plough Animal Health Corporation), and killed by bloodletting. The bladder was extracted by abdominal incision and immediately thereafter immersed in ice-cooled Krebs buffer (Krebs Ringer bicarbonate buffer (Sigma-Aldlich Co. LLC) supplemented with sodium hydrogen carbonate (final concentration: 15 mM) and calcium chloride (final concentration: 2.5 mM)) saturated with a mixed gas (95% O2, 5% CO2).
# The bladder body extracted from each rat was cut into an oblong strip shape (about 10×3 mm), whereby a specimen was prepared on ice. Immediately thereafter, the specimen was suspended in a Magnus tube filled with Krebs buffer (37° C.) bubbled with the mixed gas while applying a tension load of 500 mg thereto. Incidentally, the specimen was prepared within 24 hours after extracting the tissue. […]
# The tension (mg) in the extracted bladder was used as an evaluation item. The tension was read using analysis software WAVE THERMO 1000. […] The percent change in tension (%) is calculated according to the following formula. […]
# The value at which the percent change in tension (%) was −20% was calculated as IC20 and used as an index of the relaxing action on the extracted bladder.
# [4] = Evaluation of stability in human liver microsomes; type: in vitro ADME; details: 0.5 mg/mL human liver microsomes, NADPH, 37° C., 15 minutes, 5 μmol/L
# Method: A test compound (a 10 mmol/L DMSO solution, 5 μL) was diluted with a 50% aqueous acetonitrile solution (195 μL), whereby a 0.25 mmol/L solution was prepared.
# To a reaction vessel preheated to 37° C., 0.5 mg/mL of human liver microsomes (XenoTech, LLC) and 245 μL of a 0.1 M phosphate buffer solution (pH 7.4) containing NADPH co-factor (BD Biosciences) were added, followed by preincubation for 5 minutes, and thereafter, the above-prepared test compound solution (5 μL) was added thereto to start a reaction (final concentration: 5 μmol/L). Immediately after the start, a 20 μL portion was collected and added to 180 μL of acetonitrile containing an internal standard substance (warfarin) to stop the reaction. A 20 μL portion of this solution was stirred with 180 μL of a 50% aqueous acetonitrile solution on a plate equipped with a deproteinization filter, followed by suction filtration, and the filtrate was used as a standard sample.
# After the above-prepared reaction solution was incubated at 37° C. for 15 minutes, a 20 μL portion of the solution was added to 180 μL of cooled acetonitrile (containing warfarin serving as an internal standard substance) to stop the reaction. […]
# A residual ratio (%) was calculated as follows. […]
# T1 sequence (O43526 whole entry): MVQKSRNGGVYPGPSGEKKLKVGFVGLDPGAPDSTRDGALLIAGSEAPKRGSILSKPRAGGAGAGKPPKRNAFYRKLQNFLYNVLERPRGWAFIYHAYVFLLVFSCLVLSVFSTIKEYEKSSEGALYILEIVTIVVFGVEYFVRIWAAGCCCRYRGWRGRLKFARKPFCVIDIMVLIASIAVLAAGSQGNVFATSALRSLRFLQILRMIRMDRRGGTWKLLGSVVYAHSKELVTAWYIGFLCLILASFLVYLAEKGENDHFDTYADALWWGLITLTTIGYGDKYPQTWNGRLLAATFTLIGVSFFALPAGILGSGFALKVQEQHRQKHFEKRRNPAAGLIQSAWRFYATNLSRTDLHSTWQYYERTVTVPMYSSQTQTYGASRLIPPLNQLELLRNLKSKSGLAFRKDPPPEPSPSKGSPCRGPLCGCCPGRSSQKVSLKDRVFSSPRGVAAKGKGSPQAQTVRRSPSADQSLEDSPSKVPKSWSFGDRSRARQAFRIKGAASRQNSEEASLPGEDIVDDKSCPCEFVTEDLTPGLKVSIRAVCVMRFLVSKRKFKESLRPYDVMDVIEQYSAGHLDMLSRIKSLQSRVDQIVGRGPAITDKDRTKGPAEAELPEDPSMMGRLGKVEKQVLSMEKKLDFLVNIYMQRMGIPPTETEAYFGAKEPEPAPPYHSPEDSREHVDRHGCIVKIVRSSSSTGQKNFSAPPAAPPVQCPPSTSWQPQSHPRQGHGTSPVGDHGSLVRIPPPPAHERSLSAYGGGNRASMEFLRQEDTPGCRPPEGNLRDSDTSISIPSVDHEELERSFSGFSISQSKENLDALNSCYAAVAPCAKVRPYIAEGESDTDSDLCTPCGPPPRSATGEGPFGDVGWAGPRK
# T1 sequence (O43525 whole entry): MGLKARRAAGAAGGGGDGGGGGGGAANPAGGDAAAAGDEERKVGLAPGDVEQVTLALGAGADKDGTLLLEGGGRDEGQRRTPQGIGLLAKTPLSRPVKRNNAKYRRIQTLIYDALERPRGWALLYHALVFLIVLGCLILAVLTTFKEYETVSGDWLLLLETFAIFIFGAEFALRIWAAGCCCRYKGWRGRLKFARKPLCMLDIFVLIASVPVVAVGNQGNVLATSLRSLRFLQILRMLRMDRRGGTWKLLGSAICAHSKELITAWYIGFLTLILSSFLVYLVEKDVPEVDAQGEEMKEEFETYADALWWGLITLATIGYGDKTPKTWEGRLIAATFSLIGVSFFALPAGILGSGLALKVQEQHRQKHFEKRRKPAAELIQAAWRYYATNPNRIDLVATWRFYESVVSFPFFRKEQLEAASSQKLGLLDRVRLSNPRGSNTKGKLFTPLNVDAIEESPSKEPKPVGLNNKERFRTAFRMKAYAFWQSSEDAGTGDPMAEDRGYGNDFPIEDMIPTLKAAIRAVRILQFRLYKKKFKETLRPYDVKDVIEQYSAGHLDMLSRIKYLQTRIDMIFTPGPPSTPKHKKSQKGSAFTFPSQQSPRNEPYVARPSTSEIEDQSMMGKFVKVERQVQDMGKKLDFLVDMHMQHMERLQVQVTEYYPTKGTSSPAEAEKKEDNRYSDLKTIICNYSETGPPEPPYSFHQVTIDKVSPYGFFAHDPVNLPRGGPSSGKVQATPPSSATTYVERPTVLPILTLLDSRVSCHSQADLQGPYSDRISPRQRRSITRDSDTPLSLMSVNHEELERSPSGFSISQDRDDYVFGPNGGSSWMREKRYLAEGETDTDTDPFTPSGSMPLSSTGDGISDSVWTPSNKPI
# T2 sequence (Q12809 whole entry): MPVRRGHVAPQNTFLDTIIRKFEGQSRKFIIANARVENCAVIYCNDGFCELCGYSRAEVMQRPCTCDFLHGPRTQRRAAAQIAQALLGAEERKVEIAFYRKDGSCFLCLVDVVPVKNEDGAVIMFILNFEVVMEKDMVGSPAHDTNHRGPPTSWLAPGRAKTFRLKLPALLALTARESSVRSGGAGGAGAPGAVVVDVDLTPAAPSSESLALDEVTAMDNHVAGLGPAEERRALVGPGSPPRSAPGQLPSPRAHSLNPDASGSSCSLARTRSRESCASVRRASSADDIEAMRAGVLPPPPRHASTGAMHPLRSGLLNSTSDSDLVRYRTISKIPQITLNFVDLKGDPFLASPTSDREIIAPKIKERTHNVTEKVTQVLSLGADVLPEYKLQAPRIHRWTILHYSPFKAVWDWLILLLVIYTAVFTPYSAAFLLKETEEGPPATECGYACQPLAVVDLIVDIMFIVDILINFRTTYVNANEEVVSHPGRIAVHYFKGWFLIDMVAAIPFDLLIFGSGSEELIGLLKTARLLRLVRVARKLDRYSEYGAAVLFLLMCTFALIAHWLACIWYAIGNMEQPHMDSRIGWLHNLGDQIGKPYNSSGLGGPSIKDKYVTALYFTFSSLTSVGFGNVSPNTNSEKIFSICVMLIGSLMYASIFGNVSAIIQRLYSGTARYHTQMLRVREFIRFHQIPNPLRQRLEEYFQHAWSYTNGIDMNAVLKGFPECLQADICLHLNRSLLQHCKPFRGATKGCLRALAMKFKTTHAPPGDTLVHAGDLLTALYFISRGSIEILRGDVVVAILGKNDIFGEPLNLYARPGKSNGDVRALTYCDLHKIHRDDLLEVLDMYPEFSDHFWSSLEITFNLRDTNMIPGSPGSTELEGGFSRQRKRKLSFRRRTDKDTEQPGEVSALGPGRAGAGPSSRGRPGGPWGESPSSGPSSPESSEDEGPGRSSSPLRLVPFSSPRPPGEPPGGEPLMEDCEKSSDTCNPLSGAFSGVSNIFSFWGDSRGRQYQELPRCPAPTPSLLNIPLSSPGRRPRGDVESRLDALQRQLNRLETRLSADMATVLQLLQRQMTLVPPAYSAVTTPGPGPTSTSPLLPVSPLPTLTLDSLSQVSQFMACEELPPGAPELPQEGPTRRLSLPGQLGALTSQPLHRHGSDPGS
smiles,measurement,setting,value
"C[C@](O)(c1cc(Cl)c(NC(=O)NCc2ccc(Cl)cn2)c(Cl)c1)C(F)(F)F [A crystal, A crystal of 1-[(5-chloro-2-pyridinyl)methyl]-3-{2,6-dichloro-4-[(2S)-1,1,1-trifluoro-2-hydroxy-2-propanyl]phenyl}urea]",appearance after storage (visual inspection),[1],a change in appearance was not observed
same,powder X-ray diffraction spectrum after storage,[1],an increase in the number of peaks was not observed
"CC(O)(c1ccc(NC(=O)NCc2ccc(C(F)(F)F)cn2)cc1)C(F)(F)F (centres unmarked) [Comparative Example 1, 1-[4-(1,1,1-trifluoro-2-hydroxy-2-propanyl)phenyl]-3-{[5-(trifluoromethyl)-2-pyridinyl]methyl}urea]",EC50,Human KCNQ2/3,> 10000 nM
"O=C(Cc1ccc(F)cc1)Nc1c(Cl)cc(Cl)cc1Br [Comparative Example 2, N-(2-bromo-4,6-dichlorophenyl)-2-(4-fluorophenyl)acetamide, reference compound]",EC50,Human KCNQ2/3,200 nM
same,solubility at 5 h,Solubility test,< 5 µM
"C[C@](O)(c1cc(Cl)c(NC(=O)NCc2ccc(Cl)cn2)c(Cl)c1)C(F)(F)F.O [H crystal, Crystal of hydrate (H crystal) of 1-[(5-chloro-2-pyridinyl)methyl]-3-{2,6-dichloro-4-[(2S)-1,1,1-trifluoro-2-hydroxy-2-propanyl]phenyl}urea]",percent change in mass,[2],4%
"C[C@](O)(c1cc(Cl)c(NC(=O)NCc2ccc(Cl)cn2)c(Cl)c1)C(F)(F)F [compound I, 1-[(5-chloro-2-pyridinyl)methyl]-3-{2,6-dichloro-4-[(2S)-1,1,1-trifluoro-2-hydroxy-2-propanyl]phenyl}urea]",EC50,Human KCNQ2/3,600 nM
same,solubility at 5 h,Solubility test,98 µM
same,IC50,hERG channel,> 10000 nM
same,IC20,[3],500 nM
same,residual ratio (stability against human liver microsomes),[4],87%

# Source: US20190135755A1, “CRYSTAL POLYMORPHISM OF KCNQ2-5 CHANNEL ACTIVATOR” (ONO PHARMACEUTICAL CO., LTD., priority 2016, published 2019)
